Test results: patent US20250290915A1, “METHOD FOR PREDICTING RESPONSIVENESS TO THERAPY” (CANCERTAIN LIMITED, priority 2022, published 2025)

Test system: Circulating Tumour Cells (CTCs) from a patient with colon cancer (sigmoid colon cancer)
Experiment: Drug response score assay on CTCs from blood, Example 8
Assay type: cell-based, human
Set-up: key to Drug response score, conc. 1 / Drug response score, conc. 2 / Drug response score, conc. 3 / Drug response score, conc. 4: normalized drug response metric (Gupta et al. 2020)
Details: for Drug response score, conc. 1: conc. 1 of each drug as in Table 24; for Drug response score, conc. 1 / Drug response score, conc. 2 / Drug response score, conc. 3 / Drug response score, conc. 4: CTCs, t96h; for Drug response score, conc. 2: conc. 2 of each drug as in Table 24; for Drug response score, conc. 3: conc. 3 of each drug as in Table 24; for Drug sensitivity as calculated by the assay (interpretation of Drug Response Scores): sigmoid colon cancer CTCs, Table 26; for Drug response score, conc. 4: conc. 4 of each drug as in Table 24
Method in brief: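 EpCAM+ CTCs isolated from patient blood by CD45 depletion then EpCAM bead selection, and imaged with RealTime-Glo MT viability and CellTox Green cytotoxicity reagents. Agents added, cells cultured at 37° C, 5% CO2 for 48 h, re-dosed, then a further 48 h. Score calculated by normalized drug response metric from t0 and t96h readouts against blank-well controls.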

## COc1cccc2c1C(=O)c1c(O)c3c(c(O)c1C2=O)C[C@@](O)(C(=O)CO)C[C@@H]3O[C@H]1C[C@H](N)[C@H](O)[C@H](C)O1 [Doxorubicin]
  Drug response score, conc. 1: −0.0102
  Drug response score, conc. 2: −0.0852
  Drug response score, conc. 3: −0.2828
  Drug sensitivity as calculated by the assay (interpretation of Drug Response Scores): Sensitive (S++)

## COc1cc([C@@H]2c3cc4c(cc3[C@@H](O[C@@H]3O[C@@H]5CO[C@@H](C)O[C@H]5[C@H](O)[C@H]3O)[C@H]3COC(=O)[C@H]23)OCO4)cc(OC)c1O [Etoposide]
  Drug response score, conc. 1: −0.4099
  Drug response score, conc. 2: −0.6338
  Drug response score, conc. 3: −0.6648
  Drug response score, conc. 4: 0.1129
  Drug sensitivity as calculated by the assay (interpretation of Drug Response Scores): Sensitive (S++)

## CC(=O)O[C@H]1C(=O)[C@@]2(C)[C@H]([C@H](OC(=O)c3ccccc3)[C@]3(O)C[C@H](OC(=O)[C@H](O)[C@@H](NC(=O)c4ccccc4)c4ccccc4)C(C)=C1C3(C)C)[C@]1(OC(C)=O)CO[C@@H]1C[C@@H]2O [Paclitaxel]
  Drug response score, conc. 1: −0.8976
  Drug response score, conc. 2: −0.1500
  Drug response score, conc. 3: −0.5818
  Drug response score, conc. 4: −0.8009
  Drug sensitivity as calculated by the assay (interpretation of Drug Response Scores): Sensitive (S++)
